Literature values in patent US20140227371A1, “EDIBLE COMPOSITION” (priority 2011, published 2014).

Experiments:
rat liver = conditions: through activation of the β-oxidation system, Tsuduki et al. 2009
[1] = alcohol-induced steatosis and steatohepatitis models; Kang et al. 2005

SMILES	Lipid accumulation (rat liver)	Hepatoprotective effects [1]
OC[C@H]1NC[C@H](O)[C@@H](O)[C@@H]1O [1-Deoxynojirimycin]	suppress lipid accumulation	–
[Zn] [Zinc]	–	hepatoprotective effects
